The values that follow come from patent US20100267712A1, “ISOINDOLINE COMPOUNDS FOR THE TREATMENT OF SPINAL MUSCULAR ATROPHY AND OTHER USES” (The United States of America, as represented by the …, priority 2007, published 2010).

Where a name gives a salt, the structure may show the parent alone.

For `COc1ccc2c(c1)C(=O)N(c1ccc3ccn(CCN)c3c1)C2` (as salt: hydrochloride) [Example 23, 2-(1-(2-aminoethyl)-1H-indol-6-yl)-6-methoxyisoindolin-1-one hydrochloride], the melting point is 280 to 282 °C (dec.). In turn, `COc1ccc2c(c1)C(=O)N(c1ccc3c(ccn3C)c1)C2` [Example 1, 6-methoxy-2-(1-methyl-1H-indol-5-yl)isoindolin-1-one] gave a melting point of 193 to 197 °C. The same measure for `Cn1ccc2cc(N3Cc4ccc(OC(F)F)cc4C3=O)ccc21` [Example 2, 6-(difluoromethoxy)-2-(1-methyl-1H-indol-5-yl)isoindolin-1-one]: 180 to 182 °C.

`Cn1ccc2cc(N3Cc4ccc(OC(F)(F)Br)cc4C3=O)ccc21` [Example 3, 6-(bromodifluoromethoxy)-2-(1-methyl-1H-indol-5-yl)isoindolinl-one]: the melting point lay within 185 to 186 °C. Take `Cn1ccc2cc(N3Cc4ccc(OC(F)(F)C(F)Cl)cc4C3=O)ccc21` (stereo not drawn) [Example 4, 6-(2-chloro-1,1,2-trifluoroethoxy)-2-(1-methyl-1H-indol-5-yl)isoindolin-1-one]: the melting point is 200 to 205 °C. The same measure for `Cn1ccc2cc(N3Cc4ccc(O)cc4C3=O)ccc21` [Example 5, 6-hydroxy-2-(1-methyl-1H-indol-5-yl)isoindolin-1-one]: 230 to 235 °C; for `CCOc1ccc2c(c1)C(=O)N(c1ccc3c(ccn3C)c1)C2` [Example 6, 6-ethoxy-2-(1-methyl-1H-indol-5-yl)isoindolin-1-one]: 185 to 190 °C; for `Cn1ccc2cc(N3Cc4ccc(OCC(F)(F)F)cc4C3=O)ccc21` [Example 7, 2-(1-methyl-1H-indol-5-yl)-6-(2,2,2-trifluoroethoxy)isoindolin-1-one]: 182 to 188 °C. `CC(=O)Nc1ccc2c(c1)C(=O)N(c1ccc3c(ccn3C)c1)C2` [Example 8, N-(2-(1-methyl-1H-indol-5-yl)-3-oxoisoindolin-5-yl)acetamide] had a melting point of 275 to 280 °C. The compound `Cn1ccc2cc(N3Cc4c(N)cccc4C3=O)ccc21` [Example 9, 4-amino-2-(1-methyl-1H-indol-5-yl)isoindolin-1-one] showed a melting point of 198 to 203 °C. With `CC(=O)Nc1cccc2c1CN(c1ccc3c(ccn3C)c1)C2=O` [Example 10, N-(2-(1-methyl-1H-indol-5-yl)-1-oxoisoindolin-4-yl)acetamide], the melting point lay within 239 to 243 °C. Regarding `Cn1ccc2cc(N3Cc4ccc(Br)cc4C3=O)ccc21` [Example 11, 6-bromo-2-(1-methyl-1H-indol-5-yl)isoindolin-1-one], the melting point fell in the range of 235 to 237 °C. The same measure for `CC(C)Cc1ccc2c(c1)C(=O)N(c1ccc3c(ccn3C)c1)C2` [Example 12, 6-isobutyl-2-(1-methyl-1H-indol-5-yl)isoindolin-1-one]: 193 to 194 °C; for `CCCCc1ccc2c(c1)C(=O)N(c1ccc3c(ccn3C)c1)C2` [Example 13, 6-butyl-2-(1-methyl-1H-indol-5-yl)isoindolin-1-one]: 167 to 168 °C.

As for `C/C=C(/C)c1ccc2c(c1)C(=O)N(c1ccc3c(ccn3C)c1)C2` [Example 14, (Z)-6-(but-2-en-2-yl)-2-(1-methyl-1H-indol-5-yl)isoindolin-1-one], the melting point lay in the range of 144 to 145 °C. The same measure for `CCC(C)c1ccc2c(c1)C(=O)N(c1ccc3c(ccn3C)c1)C2` (stereo not drawn) [Example 15, 6-sec-butyl-2-(1-methyl-1H-indol-5-yl)isoindolin-1-one]: 146 to 147 °C; for `Cn1ccc2cc(N3Cc4ccc(N5CCCC5)cc4C3=O)ccc21` [Example 16, 2-(1-methyl-1H-indol-5-yl)-6-(pyrrolidin-1-yl)isoindolin-1-one]: 252 to 253 °C; for `COc1ccc2c(c1)C(=O)N(c1ccc3c(ccn3C(C)C)c1)C2` [Example 17, 2-(1-isopropyl-1H-indol-5-yl)-6-methoxyisoindolin-1-one]: 144 to 148 °C.

For orientation: melting point means the temperature, or range, at which the solid turns liquid.
